How the values were obtained:
[1] = target: T1, TLR8 (Homo sapiens, UniProt Q9NR97); assay: In vitro human TLR8 binding reporter assay (HEK-Blue, NF-kB/AP1-inducible SEAP); format: cell-based; settings: activity range, read-out: TLR8 Agonist EC50
T1 construct: human HEK-Blue cells co-expressing a TLR7 or TLR8 gene
T1 sequence (Q9NR97 27-1041): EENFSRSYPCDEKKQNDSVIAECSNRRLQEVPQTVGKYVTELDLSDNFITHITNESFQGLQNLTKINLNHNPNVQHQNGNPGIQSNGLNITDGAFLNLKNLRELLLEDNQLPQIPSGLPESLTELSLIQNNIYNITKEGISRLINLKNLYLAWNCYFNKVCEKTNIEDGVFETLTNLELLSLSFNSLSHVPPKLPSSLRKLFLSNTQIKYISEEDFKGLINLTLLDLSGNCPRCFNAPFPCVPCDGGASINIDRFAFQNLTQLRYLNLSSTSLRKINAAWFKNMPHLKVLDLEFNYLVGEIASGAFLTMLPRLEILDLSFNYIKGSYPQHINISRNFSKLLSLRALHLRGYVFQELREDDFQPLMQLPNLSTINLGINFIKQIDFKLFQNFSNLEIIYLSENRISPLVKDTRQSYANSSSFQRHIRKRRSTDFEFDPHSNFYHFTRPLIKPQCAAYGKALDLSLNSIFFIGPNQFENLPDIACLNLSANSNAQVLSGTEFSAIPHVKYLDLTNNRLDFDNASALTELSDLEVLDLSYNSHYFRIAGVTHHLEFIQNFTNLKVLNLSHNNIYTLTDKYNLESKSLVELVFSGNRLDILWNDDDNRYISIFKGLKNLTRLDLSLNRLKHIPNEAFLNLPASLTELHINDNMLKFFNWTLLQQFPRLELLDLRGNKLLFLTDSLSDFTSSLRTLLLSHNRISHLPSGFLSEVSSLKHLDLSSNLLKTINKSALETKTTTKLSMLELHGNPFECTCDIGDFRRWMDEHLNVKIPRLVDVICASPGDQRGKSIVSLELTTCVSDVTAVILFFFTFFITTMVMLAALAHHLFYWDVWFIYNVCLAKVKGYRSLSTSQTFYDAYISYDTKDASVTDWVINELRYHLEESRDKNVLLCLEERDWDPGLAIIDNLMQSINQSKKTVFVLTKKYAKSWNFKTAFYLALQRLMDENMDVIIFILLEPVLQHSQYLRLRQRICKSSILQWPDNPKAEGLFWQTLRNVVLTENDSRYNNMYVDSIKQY
Outline: (§1)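 EC50s come from NF-kB/AP1-driven SEAP secretion in HEK-Blue cells expressing TLR7 or TLR8, measured with Quanti-Blue after an 18 h compound incubation. Maximal response is defined by a 50 μM reference standard.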

[2] = system: THP-1 cells; assay: Measurement of IL-1β production, hTRF protocol (second alternative procedure), THP-1 cells; format: cell-based, human; settings: Homo sapiens, THP-1, IL-1β production, human cells; read-out: NLRP3 hILIB EC50
Outline: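 Compounds, dilution series starting at a final 10 μM, were incubated 2 hours at 37° C with PMA-differentiated THP-1 cells (50 ng/ml overnight; 50,000 cells/well, 2% FBS RPMI). Released IL-1β quantified in supernatant by hTRF kit with 1:40 antibody dilution, 4° C overnight, 665/615 nm ratio.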

[3] = target: T2, TLR7 (Homo sapiens, UniProt Q9NYK1); assay: In vitro human TLR7 binding reporter assay (HEK-Blue, NF-kB/AP1-inducible SEAP); format: cell-based; settings: activity range, read-out: TLR7 Agonist EC50
T2 construct: human HEK-Blue cells co-expressing a TLR7 or TLR8 gene
T2 sequence (Q9NYK1 27-1049): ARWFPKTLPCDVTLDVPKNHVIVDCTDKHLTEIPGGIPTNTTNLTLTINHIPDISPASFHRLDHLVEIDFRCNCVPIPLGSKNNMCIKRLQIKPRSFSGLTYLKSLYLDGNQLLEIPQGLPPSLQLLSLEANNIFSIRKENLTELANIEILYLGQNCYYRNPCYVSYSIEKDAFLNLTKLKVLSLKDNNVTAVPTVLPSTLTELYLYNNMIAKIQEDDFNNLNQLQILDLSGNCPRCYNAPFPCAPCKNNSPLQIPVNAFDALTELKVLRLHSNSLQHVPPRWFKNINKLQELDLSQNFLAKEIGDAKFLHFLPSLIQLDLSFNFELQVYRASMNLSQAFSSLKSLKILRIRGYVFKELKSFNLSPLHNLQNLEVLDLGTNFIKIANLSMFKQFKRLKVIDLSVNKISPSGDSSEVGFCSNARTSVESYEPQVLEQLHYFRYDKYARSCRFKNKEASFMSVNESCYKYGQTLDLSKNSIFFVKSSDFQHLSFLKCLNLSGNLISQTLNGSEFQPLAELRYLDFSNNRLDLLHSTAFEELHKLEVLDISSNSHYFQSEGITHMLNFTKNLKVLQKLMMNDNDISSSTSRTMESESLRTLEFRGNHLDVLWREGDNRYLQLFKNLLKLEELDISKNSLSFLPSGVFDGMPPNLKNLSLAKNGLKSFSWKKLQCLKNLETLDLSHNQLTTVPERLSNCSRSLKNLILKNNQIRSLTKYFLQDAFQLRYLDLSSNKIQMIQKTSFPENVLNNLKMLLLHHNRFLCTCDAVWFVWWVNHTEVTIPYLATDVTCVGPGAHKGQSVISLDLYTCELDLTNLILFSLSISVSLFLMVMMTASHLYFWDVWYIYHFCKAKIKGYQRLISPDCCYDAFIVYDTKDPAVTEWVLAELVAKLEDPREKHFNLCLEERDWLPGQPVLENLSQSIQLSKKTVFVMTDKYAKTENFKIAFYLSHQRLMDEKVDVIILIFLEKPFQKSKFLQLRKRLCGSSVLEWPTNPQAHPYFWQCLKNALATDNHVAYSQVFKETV
Outline: as §1

SMILES | EC50 [1] | EC50 [2] | EC50 [3]
CC(C)NC(=O)C(C)Cn1cc2c(N)nc3cc(-c4cc[nH]n4)ccc3c2n1 (stereo not drawn) [Example 614] | > 100 µM | 11.6 µM | > 100 µM
CC(C)NC(=O)CC(C)n1cc2c(N)nc3cc(-c4cc[nH]n4)ccc3c2n1 (stereo not drawn) [Example 615] | > 100 µM | 10.4 µM | > 100 µM
CC(CC(=O)N1CCOCC1)n1cc2c(N)nc3cc(-c4cc[nH]n4)ccc3c2n1 (stereo not drawn) [Example 616] | > 100 µM | 9.56 µM | > 100 µM
CC(CC(=O)N(C)C)n1cc2c(N)nc3cc(-c4cc[nH]n4)ccc3c2n1 (stereo not drawn) [Example 617] | > 100 µM | 3.88 µM | > 100 µM
CC(CC(=O)NCCCO)n1cc2c(N)nc3cc(-c4cc[nH]n4)ccc3c2n1 (stereo not drawn) [Example 619] | > 100 µM | 19.7 µM | > 100 µM
COC1CCN(C(=O)CC(C)n2cc3c(N)nc4cc(-c5cc[nH]n5)ccc4c3n2)CC1 (stereo not drawn) [Example 623] | > 100 µM | 17.3 µM | > 100 µM
CC(CC(=O)NCC1CCOCC1)n1cc2c(N)nc3cc(-c4cc[nH]n4)ccc3c2n1 (stereo not drawn) [Example 624] | > 100 µM | 19.9 µM | > 100 µM

More lines, now with the values ahead:

EC50 [1] | EC50 [2] | EC50 [3] | SMILES
> 100 µM | 0.43 µM | > 100 µM | CNC(=O)C(C)Cn1cc2c(N)nc3cc(-c4cc[nH]n4)ccc3c2n1 (stereo not drawn) [Example 612]
> 100 µM | 23.4 µM | > 100 µM | CC(Cn1cc2c(N)nc3cc(-c4cc[nH]n4)ccc3c2n1)C(=O)N1CC(O)C1 (stereo not drawn) [Example 613]
> 100 µM | 14.5 µM | > 100 µM | CC(CC(=O)NCC(F)F)n1cc2c(N)nc3cc(-c4cc[nH]n4)ccc3c2n1 (stereo not drawn) [Example 618]
> 100 µM | 28.6 µM | > 100 µM | CC(CC(=O)NCCO)n1cc2c(N)nc3cc(-c4cc[nH]n4)ccc3c2n1 (stereo not drawn) [Example 620]
> 100 µM | 1.86 µM | > 100 µM | CNC(=O)CC(C)n1cc2c(N)nc3cc(-c4cc[nH]n4)ccc3c2n1 (stereo not drawn) [Example 621]
> 100 µM | 7.28 µM | > 100 µM | CC(CC(=O)NC1CCC1)n1cc2c(N)nc3cc(-c4cc[nH]n4)ccc3c2n1 (stereo not drawn) [Example 622]

From patent US12037344B2, “NLRP3 modulators” (INNATE TUMOR IMMUNITY, INC., priority 2018, dated 2024)
